Source: patent US6838580B2, “Opioid derivative” (Teikoku Seiyaku Co., Ltd., priority 2002, dated 2005)

Assays:
δ-opioid receptor [1] = molecular target: T1, δ-opioid receptor (Rattus norvegicus, UniProt P33533); assay: Competitive receptor binding assay, synaptic membrane fraction, [3H]DPDPE; conditions: rat brain synaptic membrane, read-out: Affinity of receptor (Ki, nM) δ
T1 construct: synaptic membrane fraction obtained from the rat brain tissue; from tissue; host or cells: Sprague-Dawley rat brain without cerebellum, synaptic membrane (P2) fraction
Experimental: (§1) Regarding the opioid peptide derivatives synthesized in Examples and Reference Examples, the μ- and δ-opioid receptor affinities were obtained by a competitive receptor assay using the synaptic membrane fraction obtained from the rat brain tissue according to the known methods. That is, Sprague-Dawley rats having an average weight of 150-180 g were killed by decapitation, the brain tissue from which cerebellum had been removed was homogenized in 0.32M sucrose and 1 mM HEPES (pH 7.5) containing 50 μg/ml soybean trypsin inhibitor, fractionated and centrifuged to obtain the synaptic membrane fraction (P2 fraction), which was pre-incubated in 50 mM HEPES (pH 7.5) containing 100 mM NaCl, 0.1 mM GDP and soybean trypsin inhibitor to remove endogenous ligands from the P2 fraction.
(§2) A competitive receptor binding assay (Radiolabeled receptor assay: RRA) based on an exchange reaction between a radioactive ligand for the synaptic membrane fraction and a peptide derivative to be tested was performed by using tritium-labeled [^3H]DAGO which is a μ-opioid receptor agonist and tritium-labeled [^3H]DPDPE which has the high δ-opioid receptor selectivity, and incubating an aliquot of the synaptic membrane with the peptide derivative to be tested for a period of time. Upon this, an exchange reaction between a ligand was performed under constant conditions, the radiation remaining in the synaptic membrane fraction was measured, and an amount of the ligand adsorbed onto the synaptic membrane fraction is calculated. By assuming that binding with a receptor occurs in competition between a radioactive ligand and an end ligand, the concentration (IC50) at which the maximum specific binding of the radioactive ligand is 50% inhibited was obtained, from which the affinity constant (Ki) was calculated by a method of Cheng et al. (Biochem. Pharmcol., 22, 3099(1973)).

μ-opioid receptor = molecular target: T2, μ-opioid receptor (Rattus norvegicus, UniProt P33535); assay: Competitive receptor binding assay, synaptic membrane fraction, [3H]DAGO; conditions: for Ki: rat brain synaptic membrane, [3H]DAGO, read-out: Affinity of receptor (Ki, nM) μ; for Selectivity δ/μ: ratio Ki δ / Ki μ
T2 construct: synaptic membrane fraction obtained from the rat brain tissue; from tissue; host or cells: Sprague-Dawley rat brain without cerebellum, synaptic membrane (P2) fraction
Experimental: as §1, §2

δ-opioid receptor [2] = molecular target: T3, δ-opioid receptor (Mus musculus, UniProt P32300); assay: Mouse seminiferous tract (MVD) assay, inhibition of electrically stimulated constriction; format: cell-based; conditions: agonist activity, read-out: MVD (IC50 ± S.E.)
T3 construct: using mouse seminiferous tract in place of guinea pig ileum; from tissue; host or cells: mouse seminiferous tract (vas deferens, MVD), organ bath

SD Male rats [3] = assay: Analgesic effect, Randoll-Seritto hind limb pressure method, intravenous administration; format: in vivo; conditions: rat, i.v., 5 mg/kg
Experimental: (§3) SD Male rats, weighing 110 to 130 g, were used. One group consisted of five rats. The analgesic effects were examined by a Randoll-Seritto method. […] The threshold was expressed in mm Hg. During the measurement, the upper limit of the pressure applied to a hind limb was 100 mm Hg in order to avoid damage of the tissues.
(§4) 2) When administered intravenously (i.v.), a volume of 2 ml/kg weight was administered to a tail vein and, when administered subcutaneously (s.c.), a volume of 2 ml/kg weight was subcutaneously administered to the back. In the case of intravenous administration, a 1 mg/kg, 3 mg/kg or 10 mg/kg compound of Ex.1 administration group, a 1 mg/kg, 3 mg/kg or 10 mg/kg compound of Ex.4 administration group, a 2 ml/kg physiological saline administration group and a 5 mg/kg morphine hydrochloride administration group were made, respectively. In the case of subcutaneous administration, a 10 mg/kg, 30 mg/kg or 100 mg/kg compound of Ex.1 administration group, a 10 mg/kg, 30 mg/kg or 100 mg/kg compound of Ex.4 administration group, a 2 ml/kg physiological saline administration group and a 5 mg/kg morphine hydrochloride administration group were made, respectively. Observation of the analgesic action was performed 15 minutes, 30 minutes, 1 hour and 2 hours after administration in the case of intravenous administration, 30 minutes, 1 hour, 2 hours and 3 hours after administration in the case of subcutaneous administration, respectively.
(§5) In order to perform a significant difference test between respective administration groups and control groups, and between values at respective times before administration and after administration, a Dunnet multiple comparative test method was used. In the statistical processing for performing a significant difference test between morphine hydrochloride administration groups and control groups, Student t-test was used. For performing a significant difference test between values at respective times before administration and after administration in morphine hydrochloride administration groups, a Dunnet multiple comparative test method was used. A significant level was at 5 or lower % risk rate (two-tailed test).

SD Male rats [4] = assay: Analgesic effect, Randoll-Seritto hind limb pressure method, intracerebroventricular administration; format: in vivo; conditions: rat, i.c.v., 3 μg/animal
Source text: as §3
1) When performing intracerebroventricular administration (i.c.v.), a rat was fixed to a brain stereotactic fixing apparatus under slight ether anesthesia, the skin at a head was dissected, and an administration cannula was inserted into a place at a transverse of […] from a bregma position and a depth of 3.5 to 4.0 mm. The administration volume was 10 μl/animal. Observation of the analgesic action was performed before administration, and at 30 minutes, and 1, 2, 3, 4 and 5 hours after administration. Doses of both compounds were 0.1, 1 and 10 μg/animal. Separately, a group to which 5 mg/kg of naltrexone hydrochloride was administered subcutaneously immediately after compound of Ex.1 10 μg/animal i.c.v and a group to which 5 mg/kg of naltrexone hydrochloride was administered subcutaneously immediately after compound of Ex.4 10 μg/animal i.c.v. was made. In addition, as morphine hydrochloride at a dose of 3 μg/animal i.c.v. group was used as a positive control group and a physiological saline 10 μl/animal i.c.v. group as a control group was made, respectively.
as §5

SD Male rats [5] = assay: Analgesic effect, Randoll-Seritto hind limb pressure method, subcutaneous administration; format: in vivo; conditions: rat, s.c., 5 mg/kg
Experimental: as §3, §4, §5

T2 sequence (P33535 whole entry): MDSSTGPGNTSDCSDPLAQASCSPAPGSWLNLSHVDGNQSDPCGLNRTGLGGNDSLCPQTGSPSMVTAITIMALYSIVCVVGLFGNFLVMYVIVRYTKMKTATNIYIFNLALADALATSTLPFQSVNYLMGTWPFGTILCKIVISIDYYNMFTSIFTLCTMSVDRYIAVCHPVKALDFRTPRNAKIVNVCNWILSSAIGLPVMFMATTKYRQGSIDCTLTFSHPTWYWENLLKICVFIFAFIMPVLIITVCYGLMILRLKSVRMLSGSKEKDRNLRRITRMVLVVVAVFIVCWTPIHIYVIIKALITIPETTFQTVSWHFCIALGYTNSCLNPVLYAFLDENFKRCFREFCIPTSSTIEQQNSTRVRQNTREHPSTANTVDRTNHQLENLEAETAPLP
T1 sequence (P33533 whole entry): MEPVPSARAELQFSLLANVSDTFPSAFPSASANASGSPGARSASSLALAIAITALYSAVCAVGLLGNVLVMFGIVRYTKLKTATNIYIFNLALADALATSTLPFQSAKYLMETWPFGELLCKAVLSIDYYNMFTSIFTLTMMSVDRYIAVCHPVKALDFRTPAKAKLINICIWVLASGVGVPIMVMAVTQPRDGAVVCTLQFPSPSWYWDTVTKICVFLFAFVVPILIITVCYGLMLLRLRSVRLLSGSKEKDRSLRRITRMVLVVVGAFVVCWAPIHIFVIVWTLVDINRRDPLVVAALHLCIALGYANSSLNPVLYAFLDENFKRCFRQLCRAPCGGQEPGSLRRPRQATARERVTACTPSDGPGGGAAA
T3 sequence (P32300 whole entry): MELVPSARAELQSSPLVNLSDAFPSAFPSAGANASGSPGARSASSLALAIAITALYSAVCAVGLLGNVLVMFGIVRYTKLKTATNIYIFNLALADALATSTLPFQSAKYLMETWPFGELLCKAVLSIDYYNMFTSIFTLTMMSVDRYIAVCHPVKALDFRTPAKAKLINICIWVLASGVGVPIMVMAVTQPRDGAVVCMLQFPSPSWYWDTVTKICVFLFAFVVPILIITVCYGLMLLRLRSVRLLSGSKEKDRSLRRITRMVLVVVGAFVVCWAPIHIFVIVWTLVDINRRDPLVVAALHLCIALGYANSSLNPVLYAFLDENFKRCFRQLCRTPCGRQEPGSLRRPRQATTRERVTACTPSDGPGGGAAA

For `N[C@@H](Cc1ccc(O)cc1)C(=O)NCCCCNC(=O)[C@@H](N)Cc1ccc(O)cc1` [Ref.ex.2, 1,4-Bis(Tyr-amino)butane.2HCl, reference compound], the Ki (δ-opioid receptor [1]) was 6500 nM, the Ki (μ-opioid receptor) was 309 ± 104 nM and the “Selectivity δ/μ” value (μ-opioid receptor) was 21.

Work on `Cc1cc(O)cc(C)c1C[C@H](N)C(=O)NCCCCNC(=O)[C@@H](N)Cc1ccccc1` [Ex.2, 1-Dmt-amino-4-Phe-aminobutane.2HCl] yielded an IC50 (δ-opioid receptor [2]) greater than 10 µM, a Ki (δ-opioid receptor [1]) of 61 ± 5.7 nM and a Ki (μ-opioid receptor) of 0.52 ± 0.089 nM. The “Selectivity δ/μ” value (μ-opioid receptor) was 117.

`Cc1cc(O)cc(C)c1C[C@H](N)C(=O)NCCCCNC(=O)[C@@H](N)Cc1ccc(O)cc1` [Ex.3, 1-(Dmt-amino)-4-Tyr-aminobutane.2HCl] was tested, and the IC50 (δ-opioid receptor [2]) was greater than 10 µM, the Ki (δ-opioid receptor [1]) was 133 ± 18 nM and the Ki (μ-opioid receptor) was 0.38 ± 0.02 nM. For the same compound, the “Selectivity δ/μ” value (μ-opioid receptor) was 349.

`Cc1cc(O)cc(C)c1C[C@H](N)C(=O)NCCCCCCCCNC(=O)[C@@H](N)Cc1c(C)cc(O)cc1C` [Ex.6, 1,8-Bis(Dmt-amino)octane.2TFA] was tested, and the IC50 (δ-opioid receptor [2]) was greater than 10 µM, the Ki (δ-opioid receptor [1]) was 14.8 ± 3 nM and the Ki (μ-opioid receptor) was 0.19 ± 0.024 nM. The “Selectivity δ/μ” value (μ-opioid receptor) was 78.

In the case of `Cc1cc(O)cc(C)c1C[C@H](N)C(=O)NCCNC(=O)[C@@H](N)Cc1c(C)cc(O)cc1C` [Ex.5, 1,2-Bis(Dmt-amino)ethane.2TFA], the IC50 (δ-opioid receptor [2]) is reported as greater than 10 µM, the Ki (δ-opioid receptor [1]) is reported as 116 ± 10.6 nM and the Ki (μ-opioid receptor) is reported as 1.43 ± 0.01 nM. For the same compound, the “Selectivity δ/μ” value (μ-opioid receptor) was 81.

For `N[C@@H](Cc1ccccc1)C(=O)NCCCCNC(=O)[C@@H](N)Cc1ccccc1` [Ref.ex.1, 1,4-Bis(Phe-amino)butane.2HCl, reference compound], the Ki (δ-opioid receptor [1]) was 46200 nM, the Ki (μ-opioid receptor) was 1530 nM and the “Selectivity δ/μ” value (μ-opioid receptor) was 30.

`N[C@@H](Cc1ccc(O)cc1)C(=O)NCCNC(=O)[C@@H](N)Cc1ccc(O)cc1` [Ref.ex.4, 1,2-Bis(Tyr-amino)ethane.2TFA, reference compound] was tested, and the Ki (δ-opioid receptor [1]) was 8290 nM, the Ki (μ-opioid receptor) was 648 ± 95 nM and the “Selectivity δ/μ” value (μ-opioid receptor) was 13.

`CN1CC[C@]23c4c5ccc(O)c4O[C@H]2[C@@H](O)C=C[C@H]3[C@H]1C5.Cl` [Morphine, morphine hydrochloride, reference compound] was tested, and the “Change in escape reaction threshold / analgesic effect, in words” value (SD Male rats [3]) was “significant increase in the escape reaction threshold was recognized 15 minutes, 30 minutes and 1 hour after administration”, the “Threshold (mmHg)” value (SD Male rats [3]; 0.25 hr) was 83 ± 6^##,$$ mmHg and the “Threshold (mmHg)” value (SD Male rats [3]; 0.5 hr) was 79 ± 7^##,$$ mmHg. The “Threshold (mmHg)” value (SD Male rats [3]; 1 hr) was 78 ± 6^##,$$ mmHg, the “Threshold (mmHg)” value (SD Male rats [3]; 2 hr) was 65 ± 7 mmHg and the “Threshold (mmHg)” value (SD Male rats [3]; before administration) was 49 ± 2 mmHg. For the same compound, the “Change in escape reaction threshold / analgesic effect, in words” value (SD Male rats [4]) was “significant increase in the threshold was recognized 30 minutes, 1 hour and 3 hours after administration”, the “Threshold (mmHg)” value (SD Male rats [4]; 0.5 hr) was 59 ± 4 mmHg and the “Threshold (mmHg)” value (SD Male rats [4]; 1 hr) was 59 ± 3 mmHg. The “Threshold (mmHg)” value (SD Male rats [4]; 2 hr) was 52 ± 3 mmHg, the “Threshold (mmHg)” value (SD Male rats [4]; 3 hr) was 52 ± 3 mmHg and the “Threshold (mmHg)” value (SD Male rats [4]; 4 hr) was 49 ± 2 mmHg. For the same compound, the “Threshold (mmHg)” value (SD Male rats [4]; 5 hr) was 51 ± 2 mmHg, the “Threshold (mmHg)” value (SD Male rats [4]; before administration) was 46 ± 1 mmHg and the “Change in escape reaction threshold / analgesic effect, in words” value (SD Male rats [5]) was “significant increase was recognized 30 minutes, 1 hour and 2 hours after administration”. The “Threshold (mmHg)” value (SD Male rats [5]; 0.5 hr) was 87 ± 2^##,$$ mmHg, the “Threshold (mmHg)” value (SD Male rats [5]; 1 hr) was 85 ± 6^##,$$ mmHg and the “Threshold (mmHg)” value (SD Male rats [5]; 2 hr) was 71 ± 7^#,$ mmHg. The “Threshold (mmHg)” value (SD Male rats [5]; 3 hr) was 61 ± 7 mmHg and the “Threshold (mmHg)” value (SD Male rats [5]; before administration) was 48 ± 2 mmHg.

`N[C@@H](Cc1ccc(O)cc1)C(=O)NCCCCCCNC(=O)[C@@H](N)Cc1ccc(O)cc1.O=C(O)C(F)(F)F.O=C(O)C(F)(F)F` [Ref.ex.3, 1,6-Bis(Tyr-amino)hexane.2TFA, reference compound] was tested, and the Ki (δ-opioid receptor [1]) was 21900 nM, the Ki (μ-opioid receptor) was 410 ± 85 nM and the “Selectivity δ/μ” value (μ-opioid receptor) was 53.

With `N[C@@H](Cc1ccc(O)cc1)C(=O)NCCCCCCCCNC(=O)[C@@H](N)Cc1ccc(O)cc1` [Ref.ex.5, 1,8-Bis(Tyr-amino)octane.2TFA, reference compound] the Ki (δ-opioid receptor [1]) was 6150 nM and the Ki (μ-opioid receptor) was 399 ± 40.5 nM.
